Data reported in patent US20230348362A1, “LIPID COMPOUNDS AND LIPID NANOPARTICLE COMPOSITIONS” (Suzhou Abogen Biosciences Co., Ltd., priority 2021, published 2023).

Columns and labels:
Type in all cases: physicochemical
[1] = Encapsulation efficiency of lipid nanoparticles, Quant-it Ribogreen RNA assay; details: LNP of lipid/DSPC/cholesterol/PEG-lipid 50:10:38.5:1.5 encapsulating hEPO mRNA
Method: (§1) Briefly, a cationic lipid provided herein, DSPC, cholesterol, and PEG-lipid were solubilized in ethanol at a molar ratio of 50:10:38.5:1.5, and mRNA were diluted in 10 to 50 mM citrate buffer, pH=4. The LNPs were prepared at a total lipid to mRNA weight ratio of approximately 10:1 to 30:1 by mixing the ethanolic lipid solution with the aqueous mRNA solution at a volume ratio of 1:3 using a microfluidic apparatus, total flow rate ranging from 9-30 mL/min. Ethanol were thereby removed and replaced by DPBS using dialysis. Finally, the lipid nanoparticles were filtered through a […] sterile filter.
(§2) Lipid nanoparticle size were determined by dynamic light scattering using a Malvern Zetasizer Nano ZS (Malvern UK) using a […] backscatter detection mode. The encapsulation efficiency of lipid nanoparticles were determined using a Quant-it Ribogreen RNA quantification assay kit (Thermo Fisher Scientific, UK) according to the manufacturer's instructions.

[2] = Apparent pKa of LNP formulations, TNS fluorescence assay; details: LNP cationic lipid/DSPC/cholesterol/DMG-PEG 50/10/38.5/1.5 mol %
Method: As reported in literature, the apparent pKa of LNP formulations correlates with the delivery efficiency of LNPs for nucleic acids in vivo. The apparent pKa of each formulation was determined using an assay based on fluorescence of 2-(p-toluidino)-6-napthalene sulfonic acid (TNS). LNP formulations comprising of cationic lipid/DSPC/cholesterol/DMG-PEG (50/10/38.5/1.5 mol %) in PBS were prepared as described above. TNS was prepared as a 300 μM stock solution in distilled water. LNP formulations were diluted to 0.1 mg/mL total lipid in 3 mL of buffered solutions containing 50 mM sodium citrate, 50 mM sodium phosphate, 50 mM sodium borate, and 30 mM sodium chloride where the pH ranged from 3 to 9. An aliquot of the TNS solution was added to give a final concentration of […] and following vortex mixing fluorescence intensity was measured at room temperature in a Molecular Devices Spectramax iD3 spectrometer using excitation and mission wavelengths of 325 nm and 435 nm. A sigmoidal best fit analysis was applied to the fluorescence data and the pKa value was measured as the pH giving rise to half-maximal fluorescent intensity.

[3] = Lipid nanoparticle size and polydispersity by dynamic light scattering; details: LNP of lipid/DSPC/cholesterol/PEG-lipid 50:10:38.5:1.5 encapsulating hEPO mRNA
Method: as §1, §2

| Encapsulation Efficiency [1] | Apparent Pka [2] | polydispersity [3] | size (nm) [3] | Structure (SMILES) |
| --- | --- | --- | --- | --- |
| 92.1% | 6.378 | 0.04 | 57.09 nm | CCCCCCCCC(CCCCCCCC)COC(=O)CCCCCN(CCC)CCN(CCO)CCCCCC(=O)OCC(CCCCCCCC)CCCCCCCC [Compound 32] |
| 87.6% | 6.305 | 0.052 | 57.51 nm | CCCCCCCCC(CCCCCCCC)COC(=O)CCCCCN(CCO)CCN(CCCCCC(=O)OCC(CCCCCCCC)CCCCCCCC)C1CCOC1 (stereo not shown) [Compound 33] |
| 87.2% | 5.485 | 0.05 | 55.14 nm | CCCCCCCCC(CCCCCCCC)COC(=O)CCCCCN(CCO)CCN(CCCCCC(=O)OCC(CCCCCCCC)CCCCCCCC)C1CCCCC1C (stereo not shown) [Compound 34] |
| 90.0% | 5.843 | 0.089 | 54.18 nm | CCCCCCCCC(CCCCCCCC)COC(=O)CCCCCN(CCO)CCN(CCCCCC(=O)OCC(CCCCCCCC)CCCCCCCC)CC1CCCC1 [Compound 35] |
| 89.3% | 5.802 | 0.093 | 49.69 nm | CCCCCCCCC(CCCCCCCC)COC(=O)CCCCCN(CCO)CCN(CCCCCC(=O)OCC(CCCCCCCC)CCCCCCCC)Cc1ccccc1 [Compound 36] |
| 87.2% | 6.988 | 0.037 | 71.53 nm | CCCCCCCCC(CCCCCCCC)COC(=O)CCCCCN(CCO)CCN(CCCCCC(=O)OCC(CCCCCCCC)CCCCCCCC)Cc1ccncc1 [Compound 37] |
| 89.8% | 6.253 | 0.092 | 54.42 nm | CCCCCCCCC(CCCCCCCC)COC(=O)CCCCCN(CCO)CCN(CCCCCC(=O)OCC(CCCCCCCC)CCCCCCCC)Cc1ccc([N+](=O)[O-])cc1 [Compound 38] |
| 84.0% | 5.740 | 0.034 | 55.02 nm | CCCCCCCCC(CCCCCCCC)COC(=O)CCCCCN(CCO)CCN(CCCCCC(=O)OCC(CCCCCCCC)CCCCCCCC)Cc1ccc(C)cc1 [Compound 39] |
| 87.1% | 5.838 | 0.03 | 52.06 nm | CCCCCCCCC(CCCCCCCC)COC(=O)CCCCCN(CCO)CCN(CCCCCC(=O)OCC(CCCCCCCC)CCCCCCCC)C1CCC(C)CC1 (stereo not shown) [Compound 40] |
| 88.2% | 6.134 | 0.067 | 55.24 nm | C/C=C/CN(CCCCCC(=O)OCC(CCCCCCCC)CCCCCCCC)CCN(CCO)CCCCCC(=O)OCC(CCCCCCCC)CCCCCCCC [Compound 41] |
| 90.1% | 6.159 | 0.046 | 66.04 nm | CCCCCCCCC(CCCCCCCC)COC(=O)CCCCCN(CC=C(C)C)CCN(CCO)CCCCCC(=O)OCC(CCCCCCCC)CCCCCCCC [Compound 42] |
| 89.6% | 6.346 | 0.07 | 66.41 nm | CCCCCCCCCCCOC(=O)CCCCCN(CCN(CCO)CCCCCCC(=O)OCC(CCCCCCCC)CCCCCCCC)C1CCCCC1 [Compound 43] |
| 90.9% | 6.402 | 0.051 | 63.5 nm | CCCCCCCCCCCOC(=O)CCCCCN(CCO)CCN(CCCCCC(=O)OCC(CCCCCCCC)CCCCCCCC)C1CCCCC1 [Compound 45] |
| 90.3% | 6.335 | 0.042 | 64.14 nm | CCCCCCCCCCCOC(=O)CCCCCN(CCN(CCO)CCCCCC(=O)C(CCCCCC)CCCCCCCCC)C1CCCCC1 (stereo not shown) [Compound 46] |
| 91.0% | 6.298 | 0.037 | 66.29 nm | CCCCCCCCCCCOC(=O)CCCCCN(CCN(CCO)CCCCCC(=O)OCC(CCCCCCCCCC)CCCCCCCCCC)C1CCCCC1 [Compound 47] |
| 92.1% | 6.295 | 0.037 | 73.5 nm | CCCCCCCCCCCOC(=O)CCCCCN(CCN(CCO)CCCCCCCC(=O)OCC(CCCCCCCC)CCCCCCCC)C1CCCCC1 [Compound 48] |

| Encapsulation Efficiency [1] | Apparent Pka [2] | polydispersity [3] | size (nm) [3] | Structure (SMILES) |
| --- | --- | --- | --- | --- |
| 95.5% | 6.153 | 0.1 | 55.04 nm | CCCCCCCCCCCOC(=O)CCCCCN(CCN(CCO)CCCCCC(=O)OCC(CCCCCCCC)CCCCCCCC)C1CCC(F)(F)CC1 [Compound 49] |
| 93.4% | 5.786 | 0.235 | 59.59 nm | CCCCCCCCCCCOC(=O)CCCCCN(CCN(CCO)CCCCCC(=O)OCC(CCCCCCCC)CCCCCCCC)C1CC(F)(F)C1 [Compound 50] |
| 97.0% | 6.579 | 0.028 | 83.92 nm | CCCCCCCCC(CCCCCCCC)COC(=O)CCCCCN(C)CCN(CCCCCC(=O)OCC(CCCCCCCC)CCCCCCCC)C1CCC(O)CC1 (stereo not shown) [Compound 51] |
| 95.6% | 6.114 | 0.089 | 67.63 nm | CCCCCCCCC(CCCCCCCC)COC(=O)CCCCCN(CCC)CCN(CCCCCC(=O)OCC(CCCCCCCC)CCCCCCCC)C1CCC(O)CC1 (stereo not shown) [Compound 52] |
| 95.7% | 5.872 | 0.062 | 63.7 nm | CCCCCCCCC(CCCCCCCC)COC(=O)CCCCCN(CCCCCC)CCN(CCCCCC(=O)OCC(CCCCCCCC)CCCCCCCC)C1CCC(O)CC1 (stereo not shown) [Compound 53] |
| 93.4% | 6.51 | 0.065 | 77.99 nm | CCCCCCCCCCCOC(=O)CCCCCN(CCN(CCO)CCCCCC(=O)OCC(CCCCCCCC)CCCCCCCC)C1CC(OC)C1 (stereo not shown) [Compound 54] |
| 95.6% | 5.951 | 0.071 | 83.97 nm | CCCCCCCCC(CCCCCCCC)COC(=O)CCCCCN(CCN(CCCCCC(=O)OCC(CCCCCCCC)CCCCCCCC)C1CCC(O)CC1)C1CCC1 (stereo not shown) [Compound 55] |
| 92.96% | 6.702 | 0.174 | 57.44 nm | CCCCCCCCC(CCCCCCCC)COC(=O)CCCCCN(CCO)CCN(CCCCCC(=O)OCC(CCCCCCCC)CCCCCCCC)Cc1ccc(O)cc1 [Compound 56] |
| 91.7% | 6.509 | 0.044 | 79.95 nm | CCCCCCCCCCCC(=O)OCCCCCN(CCN(CCO)CCCCCOC(=O)CC(CCCCCCCC)CCCCCCCC)C1CCCCC1 [Compound 57] |
| 97.7% | 7.327 | 0.1 | 110 nm | CCCCCCCCCCCC(=O)NCCCCCN(CCN(CCO)CCCCCNC(=O)CC(CCCCCCCC)CCCCCCCC)C1CCCCC1 [Compound 58] |
| 91.7% | 6.761 | 0.039 | 59.89 nm | CCCCCCCCC(CCCCCCCC)CC(=O)NCCCCCN(CCO)CCN(CCCCCNC(=O)CC(CCCCCCCC)CCCCCCCC)C1CCC1 [Compound 60] |
| 95.4% | 6.731 | 0.026 | 66.08 nm | CCCCCCCCC(CCCCCCCC)CC(=O)NCCCCCN(CCN(CCO)CCCCCOC(=O)CC(CCCCCCCC)CCCCCCCC)C1CCC1 [Compound 61] |
| 92.0% | 6.21 | 0.034 | 68.28 nm | CCCCCCCCC(CCCCCCCC)CC(=O)OCCCCCN(CCO)CCN(CCCCCOC(=O)CC(CCCCCCCC)CCCCCCCC)C1CCC1 [Compound 62] |
| 93.93% | 6.147 | 0.044 | 87.84 nm | CCCCCCCCC(CCCCCCCC)COC(=O)/C=C/CN(CCO)CCN(CCCCCC(=O)OCC(CCCCCCCC)CCCCCCCC)C1CCC1 [Compound 63] |
| 97.95% | 7.262 | 0.177 | 81.36 nm | CCCCCCCCC(CCCCCCCC)COC(=O)CCCCCN(C)C1CCC(N(CCO)CCCCCC(=O)OCC(CCCCCCCC)CCCCCCCC)CC1 (stereo not shown) [Compound 64] |
